Experimental data from a melting point compilation (Tetko et al.).

First: Cc1cc(C(C)(C)C)cc(C)c1CC#N
Second: Cc1cc(C)cc(C(=O)CC#N)c1
The melting point of the first is lower: 84 to 86 °C for the first, 140 to 142 °C for the second.

First: CCN(c1ccccc1)S(=O)(=O)c1ccc(Cl)nc1
Second: CC(=O)N(c1ccccc1)c1nc(C=O)cs1
The melting point of the first is lower: 81 to 83 °C for the first, 150 to 152 °C for the second.

Compared with `CC(C)(C)c1cc(N)n(CCO)n1`, `Cc1cc(C(=O)O)nn1C(C)(C)C` is higher in melting point: 102 to 104 °C for the first, 143 to 145 °C for the second.

First: O=C(CCCl)NC(=O)NCC(F)(F)F
Second: O=C(NCC(F)(F)F)c1ccc(S(=O)(=O)Cl)cc1
The melting point of the first is higher: 145 to 147 °C for the first, 139 to 141 °C for the second.

First: Cn1c(=O)c(Br)c(N)n(Cc2ccccc2)c1=O
Second: Cc1ccccc1-n1nc(-c2ccccc2)cc1N
The melting point of the first is higher: 210 to 212 °C for the first, 109 to 111 °C for the second.

First: O=C1CCSc2ccccc2N1
Second: CC1CSc2ccc(Cl)cc2NC1=O (stereo not drawn)
The melting point of the first is lower: 208 to 210 °C for the first, 222 to 224 °C for the second.

Compared with `COC(=O)c1cc(Cl)c(=O)[nH]c1C`, `COC(=O)c1ccc(S(=O)(=O)Cl)c(C)c1` is lower in melting point: 239 to 241 °C for the first, 51 to 53 °C for the second.

First: O=C(O)c1cc(Oc2ccccc2)ccn1
Second: Oc1ccc(Oc2ccccn2)cc1
The melting point of the first is higher: 179 to 181 °C for the first, 142 to 144 °C for the second.

First: CC(C)c1nc(Cl)nc(N(C)C)n1
Second: Cc1cc(Cl)n2ncnc2c1
The melting point of the first is lower: 57 to 59 °C for the first, 93 to 95 °C for the second.

`N#Cc1ccc2cc(Br)c(Br)cc2c1` and `Cn1cnc2cc(C#N)ccc21` cannot be ordered by melting point: 138 to 140 °C for the first, 139 to 141 °C for the second.

First: O=C(O)C1CC1c1ccc(OCc2ccccc2)cc1 (stereo not drawn)
Second: O=C(O)COc1ccccc1-c1ccccc1
The melting point of the first is higher: 147 to 149 °C for the first, 102 to 104 °C for the second.

First: O=C(O)c1ccc2c(c1)CCC2
Second: O=C(O)C1CCN(S(=O)(=O)c2ccc3c(c2)CCC3)CC1
The melting point of the first is higher: 173 to 175 °C for the first, 170 to 172 °C for the second.

First: FC(F)(F)C1(NCc2ccccc2)CCC2(CC1)OCCO2
Second: CN1CCC(O)(Cc2ccccc2Cl)CC1
The melting point of the first is higher: 83 to 85 °C for the first, 73 to 75 °C for the second.

Compared with `Cc1ccccc1-n1c(S)nc(O)cc1=O`, `Cc1nc2cc(C(=O)O)ccc2n1-c1ccccc1` is higher in melting point: 206 to 208 °C for the first, 210 to 212 °C for the second.

First: COc1ccc(N2C(=O)C=CC2=O)cn1
Second: COC(=O)C(F)c1nc2ccccc2c(=O)[nH]1 (stereo not drawn)
The melting point of the first is lower: 122 to 124 °C for the first, 147 to 160 °C for the second.

First: NC(c1nnn[nH]1)C1CC1 (stereo not drawn)
Second: NCc1c[nH]nn1
The melting point of the first is higher: 233 to 235 °C for the first, 211 to 213 °C for the second.

First: CC1CC(C(=O)O)CC(=O)N1 (stereo not drawn)
Second: Cc1ccc(C2CC2C(=O)O)s1 (stereo not drawn)
The melting point of the first is higher: 159 to 161 °C for the first, 45 to 47 °C for the second.

Compared with `COCCn1c(S)nc2cc(Cl)ccc21`, `CC(=O)c1c[nH]c2cc(Cl)ccc12` is higher in melting point: 195 to 197 °C for the first, 229 to 231 °C for the second.

First: COc1ccc(NC(=O)C(Cl)c2ccccc2)cc1 (stereo not drawn)
Second: N#CC(C(=O)c1ccccc1)c1ccccc1 (stereo not drawn)
The melting point of the first is higher: 152 to 156 °C for the first, 97 to 99 °C for the second.

First: COc1cc(S(N)(=O)=O)ccc1[N+](=O)[O-]
Second: O=[N+]([O-])c1cc(Cl)ccc1S(=O)(=O)Cl
The melting point of the first is higher: 149 to 151 °C for the first, 74 to 76 °C for the second.

First: Oc1ccc(-n2cnnn2)cc1
Second: c1cc(-c2nnc[nH]2)ccn1
The melting point of the first is lower: 209 to 211 °C for the first, 225 to 227 °C for the second.

First: COC(=O)C(=O)CC(=O)c1ccccc1F
Second: COC(=O)c1ccc(C)c(NC(=O)CCl)c1
The melting point of the first is lower: 81 to 83 °C for the first, 135 to 137 °C for the second.

First: CCNC(=O)c1ccc(F)cc1Br
Second: CCNC(=O)c1ccc(C)c(N)c1
The melting point of the first is higher: 103 to 105 °C for the first, 74 to 76 °C for the second.

First: O=C(CCl)NC(c1ccc(F)cc1)c1cccs1 (stereo not drawn)
Second: O=C(O)c1cnc(Cc2ccc(F)cc2)s1
The melting point of the first is lower: 124 to 126 °C for the first, 178 to 180 °C for the second.

First: CCOC(=O)C(O)(CC#N)c1nccn1C (stereo not drawn)
Second: CN(CC(=O)O)c1ccc(C#N)cn1
The melting point of the first is lower: 117 to 119 °C for the first, 170 to 172 °C for the second.

Compared with `O=C(CCl)Nc1ccc(OC(F)(F)F)cc1`, `O=C(Nc1cccc2cnccc12)OCC(F)(F)F` is higher in melting point: 71 to 74 °C for the first, 181 to 183 °C for the second.

Compared with `CCN1CCN(c2ccc(C(C)=O)cc2F)CC1`, `CCOC(=O)c1ccc2c(c1)CCCN2` is higher in melting point: 68 to 70 °C for the first, 79 to 81 °C for the second.

Compared with `N#Cc1ccc(Cn2cnc3ccccc32)cc1`, `O=Cc1ccc(OCc2ccc(Cl)cc2)cc1` is lower in melting point: 103 to 105 °C for the first, 72 to 74 °C for the second.

Compared with `Cn1c(=O)c2[nH]c(Br)nc2n(C)c1=O`, `CCCCn1c2c(c(=O)n(C)c1=O)C(CC(=O)O)C(=O)N2` (stereo not drawn) is lower in melting point: 299 to 301 °C for the first, 229 to 231 °C for the second.

Compared with `CC(N)(C(N)=O)c1ccccc1` (stereo not drawn), `OCc1cnn(-c2ccccc2)c1` is lower in melting point: 114 to 116 °C for the first, 63 to 67 °C for the second.

First: O=C(O)c1csc(-c2cccc([N+](=O)[O-])c2)n1
Second: O=C(O)c1ccn(-c2ccccc2[N+](=O)[O-])n1
The melting point of the first is lower: 214 to 216 °C for the first, 223 to 225 °C for the second.

First: CN(C)C(=O)c1cccc(C(=O)O)c1
Second: CCNC(=O)c1cccc(O)c1
The melting point of the first is lower: 134 to 136 °C for the first, 160 to 162 °C for the second.

First: Fc1ccc(NC2CCN(c3ccncc3)CC2)cc1
Second: O=C(O)C1CCN(C(=O)c2cccc3ccccc23)CC1
The melting point of the first is lower: 151 to 153 °C for the first, 190 to 192 °C for the second.

First: O=C(O)C1CC1c1ccco1 (stereo not drawn)
Second: O=C(O)c1sc2cccc(Cl)c2c1Cl
The melting point of the first is lower: 51 to 53 °C for the first, 273 to 275 °C for the second.

First: O=C(O)CCc1ccc(OC(F)F)cc1
Second: CC(Oc1ccc(C(C)(C)C)cc1)C(=O)O (stereo not drawn)
The melting point of the first is lower: 61 to 63 °C for the first, 93 to 95 °C for the second.

First: COc1ccc(F)cc1C(=O)O
Second: O=C(O)c1cc2cc(F)ccc2oc1=O
The melting point of the first is lower: 87 to 91 °C for the first, 185 to 187 °C for the second.

Compared with `CSc1ccc(C=NO)cc1`, `CC(N)c1ccc(OCC(N)=O)cc1` (stereo not drawn) is higher in melting point: 114 to 116 °C for the first, 127 to 129 °C for the second.

First: O=C(O)c1ccccc1CSc1nc2ccccc2o1
Second: Cc1ccc(C(=O)c2ccccc2C(=O)O)cc1C
The melting point of the first is higher: 175 to 177 °C for the first, 166 to 168 °C for the second.

First: O=C(O)c1c[nH]cc1C(=O)O
Second: Cc1ncc(C(=O)O)s1
The melting point of the first is higher: 311 to 313 °C for the first, 209 to 211 °C for the second.

Compared with `N#Cc1c(F)cccc1Sc1ccccc1`, `O=C(O)/C=C/c1cccc(-c2ccccc2)c1` is higher in melting point: 108 to 110 °C for the first, 195 to 197 °C for the second.

First: O=C1COc2cc([N+](=O)[O-])c(F)cc2N1
Second: Cc1ccc2[nH]c3c(c2c1)CCCC3=O
The melting point of the first is higher: 221 to 223 °C for the first, 185 to 187 °C for the second.

First: N#Cc1cc(F)ccc1N=C=O
Second: N#CCC(=O)Cc1ccc(Cl)cc1
The melting point of the first is lower: 31 to 33 °C for the first, 85 to 87 °C for the second.

Compared with `Cc1cc(OCC(N)=O)ccc1N`, `Cc1ccc(OC(F)F)c(C(=O)CBr)c1` is lower in melting point: 137 to 139 °C for the first, 55 to 57 °C for the second.

Compared with `Nc1cccc2ccncc12`, `Cc1cc(C(=O)O)c(C)n1-c1cccnc1` is higher in melting point: 169 to 171 °C for the first, 192 to 194 °C for the second.

First: COc1ccc(C(C)(C)C(=O)O)cc1OC
Second: Cc1ccc(C)c2c(C)c(C(=O)O)oc12
The melting point of the first is lower: 84 to 86 °C for the first, 239 to 241 °C for the second.

Compared with `O=C1NC(=O)C2(CCSCC2)N1`, `NC(=O)NC1(C(=O)O)CC1` is lower in melting point: 265 to 267 °C for the first, 189 to 191 °C for the second.

Compared with `Sc1n[nH]c(-c2ccccn2)n1`, `Clc1ncnc2c1nnn2-c1ccccc1` is lower in melting point: 279 to 281 °C for the first, 115 to 117 °C for the second.

First: CCOc1cccc(C=O)c1OC(F)F
Second: NC(=O)CNC(=O)c1ccc(N)cc1
The melting point of the first is lower: 41 to 43 °C for the first, 216 to 218 °C for the second.

First: OCC1CCCN(c2cc(Cl)ncn2)C1 (stereo not drawn)
Second: Cc1ccsc1C(=O)Nc1ccc2c(c1)CCCN2
The melting point of the first is lower: 111 to 113 °C for the first, 135 to 137 °C for the second.

First: N#CCCCn1cc(C(=O)O)nn1
Second: O=C(O)CSc1nnnn1CC(F)(F)F
The melting point of the first is higher: 164 to 166 °C for the first, 135 to 137 °C for the second.

First: CC(=O)Nc1ccc(N2C(=O)c3ccc(C(=O)O)cc3C2=O)cc1
Second: NS(=O)(=O)c1ccc(C(=O)NCC(=O)O)cc1
The melting point of the first is higher: 379 to 381 °C for the first, 192 to 194 °C for the second.

With `Cc1cncc(-n2ccnc2)c1` the melting point was 88 to 90 °C.
